Experimental data from patent US20240335431A1, “1-H-PYRROLO[2,3-c]PYRIDINE COMPOUNDS” (Acerta Pharma B.V., priority 2023, published 2024).

Columns and labels:
Menin protein = Menin protein (Homo sapiens (Human), UniProt O00255); assay: Menin protein degradation in MV-4-11 SILAC cells (pulse SILAC, PRM); format: cell-based; settings: 300 nM
Procedure: An MV-4-11 cell line was passaged at least eight times in SILAC-IMDM (ThermoFisher, #88367), which lacks L-lysine and L-arginine, and supplemented with 10% (v/v) dialyzed FBS (ThermoFisher, #A3382001), [^13C6, ^15N2]-L-lysine, and [^13C6, ^15N4]-L-arginine (Sigma #608041 and #608033) (100 μg/mL each) to achieve “heavy cell” status as determined by LC-MS/MS. Whenever thawed, the “heavy-labelled” cells were passaged at least three times before use in experiments. “Light” medium was prepared by supplementing SILAC-IMDM with 10% (v/v) dialyzed FBS and unlabeled L-arginine and L-lysine (Sigma, #A6969, #L8662). SILAC-IMDM was either supplemented with 300 nM of Compound 56-2 (10 mM solution in DMSO) or the equivalent amounts of DMSO as control. Cells were transferred to “light” media, incubated at 37° C., 5% CO2, and collected at various time points (0 hrs, 1 hrs, 2 hrs, 4.25 hrs, 10.25 hrs, 20.75 hrs, 28.5 hrs, 47 hrs, 72 hrs) by two washes with ice cold PBS and pelleted by centrifugation.
Cell pellets (approximately 2×10^5 cells) were transferred to 96-well plate using cell lysis buffer (4% SDS, 50 mM HEPES pH 7.4, 5 mM TCEP, and 10 mM chloroacetamide) and heated to 95° C. for 10 minutes. […] The PRM data were analyzed with Skyline (University of Washington, Seattle, WA., Ref.) using high-selectivity data extraction. […]

MOLM-13 AML cells = assay: MLLr AML xenograft model MOLM-13; format: in vivo, female CB17 SCID mice; settings: for tumor response (in words): 30 mg/kg
Procedure: MOLM-13 cells were grown in RPM1 1640 (Gibco, #21875091) supplemented with 10% FBS (Gibco; #10091-148) and 1% Pen/Strep (Gibco; #15140-122). Cells were harvested and resuspended in PBS/Matrigel (Corning; #CLS354234) (50/50). Compound 56-2 was formulated in water at pH 4.5-5 using 1 M MSA as pH-adjusting agent at the concentrations up to 100 mg/mL to achieve a uniform suspension and dosed twice daily by oral gavage 10 mL/kg.
1 million human MOLM-13 AML cells were implanted subcutaneously in the right flank of female CB17 SCID mice. Mice were randomized into groups of 5 when average tumor volume reached approximately 160 mm^3. Mice were treated for 21 days with vehicle (water at pH 4.5-5 using 1 M MSA) or Compound 56-2 at 30, 100, or 200 mg/kg. Test compound was dosed orally twice daily 8/16 hours apart. The group administered Compound 56-2 at 30, 100, 200 mg/kg were monitored for regrowth for 3 weeks. […] FIG. 2A illustrates the effect of treatment with Compound 56-2 on tumor volume in this MLLr MOLM-13 human AML cancer xenograft mouse model.
In a second cohort of mice, MOLM-13 AML cells were implanted and randomized as described above. Mice were treated until tumor outgrowth with vehicle (water at pH 4.5-5 using 1 M MSA) or Compound 56-2 at 30 mg/kg or 150 mg/kg. Test compound was dosed orally twice daily 8/16 hours apart. […] FIG. 2B illustrates the effect of treatment with Compound 56-2 on tumor volume in this MLLr MOLM-13 human AML cancer xenograft mouse model.

MOLM-13 cells = assay: Cell death in MOLM-13 cell line, Compound 56-2 with BCL2 inhibitor venetoclax (CellTiter-Glo, 4 days); format: cell-based, human
Procedure: Test compound was dispensed using a Tecan compound dispenser into 384-well plates (Microplate 384-well, polypropylene, F-bottom; Greiner Bio-One, #781201) in a ten-by-ten response matrix to assess the combination effects of Menin inhibition (Compound 56-2) together with BCL-2 inhibition (venetoclax) at the following concentrations after subsequent cell seeding in 40 μL of growth media: 10 μM, 3.16 μM, 1 μM, 0.316 μM, 0.1 μM, 0.0316 μM, 0.01 μM, 0.00316 μM, […], and vehicle (DMSO; Sigma-Aldrich, D2650). Cells were seeded at 1000 cells per well and incubated at 37° C. and 5% CO2. MOLM-13 cells were grown in RPM1 1640 (Gibco, #21875091) supplemented with 10% FBS (Gibco; #10091-148) and 1% Pen/Strep (Gibco; #15140-122). After 4 days of compound treatment, plates were placed at room temperature for 15 minutes. 10 μL CellTiter-Glo reagent (Promega, #G9242) was added to the cells and incubated for 10 minutes in the dark on a plate shaker at room temperature. A backseal (Perkin Elmer; #6005199) was added to the plates and luminescence was measured at 0.1 sec/well in an Envision (Perkin Elmer). Data were normalized for each plate so that the average of control wells (DMSO) was set to 0%, and the maximum observed value across the plate was set as 100%. Data fitting was performed using Graphpad Prism and combination effect was assessed using SynergyFinder.

[1] = second cohort, 30 mg/kg oral twice daily, 41 days or less

Menin protein, sequence (O00255 whole entry): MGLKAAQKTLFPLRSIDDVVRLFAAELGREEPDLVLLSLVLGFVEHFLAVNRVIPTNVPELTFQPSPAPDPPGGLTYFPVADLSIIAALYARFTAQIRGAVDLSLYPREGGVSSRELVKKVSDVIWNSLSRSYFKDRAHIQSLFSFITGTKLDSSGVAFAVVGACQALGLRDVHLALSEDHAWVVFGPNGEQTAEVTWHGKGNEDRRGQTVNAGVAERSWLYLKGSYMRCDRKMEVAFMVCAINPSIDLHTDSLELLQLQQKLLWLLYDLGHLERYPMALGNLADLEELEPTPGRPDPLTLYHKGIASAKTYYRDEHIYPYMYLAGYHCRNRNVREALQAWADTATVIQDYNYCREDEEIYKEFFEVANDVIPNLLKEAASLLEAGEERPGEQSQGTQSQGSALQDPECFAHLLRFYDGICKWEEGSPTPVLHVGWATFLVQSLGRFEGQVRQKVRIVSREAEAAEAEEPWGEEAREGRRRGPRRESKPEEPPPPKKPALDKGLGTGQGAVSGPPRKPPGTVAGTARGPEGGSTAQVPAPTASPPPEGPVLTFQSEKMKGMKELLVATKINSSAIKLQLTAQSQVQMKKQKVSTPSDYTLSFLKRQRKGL

## Cc1c(C(=O)C2CCN(C(=O)[C@@H]3CCC(C)(C)N3)CC2)c2ccncc2n1-c1ccc(F)cc1C(=O)N(C(C)C)C(C)C (single isomer, unassigned) [Compound 56-2]
Menin protein
  kdeg (rate of degradation of heavy Menin protein): 3.89e-05 s⁻¹
MOLM-13 AML cells; 30 mg/kg oral twice daily, 21 days
  % REGRESSION AT END OF TREATMENT: 6.2%
MOLM-13 AML cells; 30 mg/kg oral twice daily, 21 days, monitored 3 weeks
  % TUMOR REGROWTH AT STUDY END: 100%
MOLM-13 AML cells; 21 days
  tumor response (in words): outgrew after treatment end
MOLM-13 AML cells; 100 mg/kg and 200 mg/kg, 21 days
  tumor response at end of treatment (in words): complete tumor regressions
MOLM-13 AML cells; 100 mg/kg oral twice daily, 21 days
  % REGRESSION AT END OF TREATMENT: 89.8%
MOLM-13 AML cells; 100 mg/kg oral twice daily, 21 days, monitored 3 weeks
  % TUMOR REGROWTH AT STUDY END: 80%
MOLM-13 AML cells; 200 mg/kg oral twice daily, 21 days
  % REGRESSION AT END OF TREATMENT: 98.5%
MOLM-13 AML cells; 200 mg/kg oral twice daily, 21 days, monitored 3 weeks
  % TUMOR REGROWTH AT STUDY END: 100%
MOLM-13 AML cells; [1]
  % REGRESSION AT END OF TREATMENT: 0%
  % TUMOR REGROWTH AT STUDY END: 0%
MOLM-13 AML cells; second cohort, 41 days or less
  tumor response (in words): all animals outgrew treatment
MOLM-13 AML cells; second cohort, 150 mg/kg oral twice daily, 90 days
  % REGRESSION AT END OF TREATMENT: 100%
MOLM-13 AML cells; second cohort, 150 mg/kg, 90 days
  tumor response at end of treatment (in words): complete tumor regression
MOLM-13 AML cells; second cohort, 150 mg/kg, 90 days, monitored additional 70 days
  % TUMOR REGROWTH AT STUDY END: 100%
MOLM-13 cells
  cell viability as monotherapy (in words): cell viability loss was induced
